Data reported in US20080031893A1 (Metaproteomics, LLC, priority 2006, published 2008).
Marks after values point to notes of the source that are not given here.

Key:
3T3-L1 adipocytes [1] = test: Adiponectin secretion in LPS/3T3-L1 adipocytes; format: cell-based, murine; conditions: for adiponectin secretion: LPS, any dose tested; for % Stimulation (maximum) of adiponectin secretion: 0.625 μg/ml
3T3-L1 adipocytes [2] = test: Adiponectin secretion from insulin-resistant 3T3-L1 adipocytes; format: cell-based, murine
Protocol: 3T3-L1 cells were seeded at an initial density of 1×10^4 cells/cm^2 in 96-well plates. For two days, the cells were allowed grow to reach confluence. Following confluence, the cells were forced to differentiate into adipocytes by the addition of differentiation medium; this medium consisted of (1) 10% FBS/DMEM (high glucose); (2) 0.5 mM methylisobutylxanthine; (3) 0.5 μM dexamethasone and (4) 10 μg/ml insulin (MDI medium). From Day 3 through Day 5, the medium was changed to post-differentiation medium consisting of 10 μg/ml insulin in 10% FBS/DMEM.
Briefly, on Day 6, cells were maintained in serum-free media containing 0.5% bovine serum albumin (BSA) for three hours and then treated with 1 μg insulin/ml plus solvent or insulin plus test material. […] Twenty-four hours later, the supernatant medium was sampled for adiponectin determination.
Adiponectin Assay—The adiponectin secreted into the medium was quantified using the Mouse Adiponectin Quantikine® Immunoassay kit with no modifications (R&D Systems, Minneapolis, Minn.).
Statistical Calculations and Interpretation—All assays were preformed in duplicate. […] Differences between the doses were determined using the student's t-test without correction for multiple comparisons; the nominal five percent probability of a type I error was selected. […]

3T3-L1 adipocytes [3] = test: Adiponectin secretion from TNFα-treated 3T3-L1 adipocytes; format: cell-based, murine
Protocol: For two days, the cells were allowed grow to reach confluence. […] (3) 0.5 μM dexamethasone and (4) 10 μg/ml insulin (MDI medium). […] Adiponectin Assay—The adiponectin secreted into the medium was quantified using the Mouse Adiponectin Quantikine® Immunoassay kit with no modifications (R&D Systems, Minneapolis, Minn.). […] Statistical Calculations and Interpretation—All assays were preformed in duplicate. […] Differences among the doses and test agents were determined using the Student's t-test without correction for multiple comparisons; the nominal five percent probability of a type I error was selected.

3T3-L1 adipocytes [4] = test: IL-6 secretion from TNFα-treated 3T3-L1 adipocytes; format: cell-based, murine; conditions: 10 ng TNFα/ml
Protocol: Interleukin-6 Assay—The IL-6 secreted into the medium was quantified using the Quantikine® Mouse IL-6 Immunoassay kit with no modifications (R&D Systems, Minneapolis, Minn.). […] All supernatant media samples were assayed undiluted.
Statistical Calculations and Interpretation—All assays were preformed in duplicate. […] Differences among the doses were determined using the student's t-test without correction for multiple comparisons; the nominal five percent probability of a type I error (one-tail) was selected.

3T3-L1 adipocytes [5] = test: IL-6 secretion in LPS/3T3-L1 adipocytes; format: cell-based, murine; conditions: 100 ng LPS/ml
NF-kBp65 = test: Nuclear translocation of NF-kBp65 in TNFα-treated 3T3-L1 adipocytes; format: cell-based, murine; conditions: three or 24 hours following TNFα
Protocol: Cell Culture and Treatment—Following differentiation 3T3-L1 adipocytes were maintained in post-differentiation medium for an additional 40 days. […] Hops derivatives and the positive control pioglitazone were tested at concentrations of 2.5, and 5.0 μg/ml. Test materials were added 1 hour prior to and nuclear extracts were prepared three and 24 hours following treatment with TNFα.
ELISA—3T3-L1 adipocytes were maintained in growth media for 40 days following differentiation. Nuclear NF-kBp65 was determined using the TransAM™ NF-kB kit from Active Motif (Carlsbad, Calif.) was used with no modifications. Jurkat nuclear extracts provided in the kit were derived from cells cultured in medium supplemented with 50 ng/ml TPA (phorbol, 12-myristate, 13 acetate) and 0.5 μM calcium ionophore A23187 for two hours at 37° C. immediately prior to harvesting.
Protein assay—Nuclear protein was quantified using the Active Motif Fluorescent Protein Quantification Kit.
Statistical Analysis—Comparisons were performed using a one-tailed Student's t-test. The probability of a type I error was set at the nominal five percent level.

3T3-L1 adipocytes [6] = test: Lipogenesis in 3T3-L1 adipocytes (Oil Red O / BODIPY); format: cell-based, murine; conditions: for adipogenic response of hops compounds: 10, 5, 4 or 2 μg/ml, spent hops 50 μg/ml
Protocol: Prior to experiments, cells were cultured in DMEM containing 10% FBS-HI added 50 units penicillin/ml and 50 μg streptomycin/ml, and maintained in log phase prior to experimental setup. Cells were grown in a 5% CO2 humidified incubator at 37° C. Components of the pre-confluent medium included (1) 10% FBS/DMEM containing 4.5 g glucose/L; (2) 50 U/ml penicillin; and (3) 50 μg/ml streptomycin. Growth medium was made by adding 50 ml of heat inactivated FBS and 5 ml of penicillin/streptomycin to 500 ml DMEM. This medium was stored at 4° C. Before use, the medium was warmed to 37° C. in a water bath.
3T3-T1 cells were seeded at an initial density of 6×10^4 cells/cm^2 in 24-well plates. For two days, the cells were allowed grow to reach confluence. Following confluence, the cells were forced to differentiate into adipocytes by the addition of differentiation medium; this medium consisted of (1) 10% FBS/DMEM (high glucose); (2) 0.5 mM methylisobutylxanthine; (3) 0.5 μM dexamethasone and (4) 10 μg/ml insulin (MDI medium). After three days, the medium was changed to post-differentiation medium consisting of 10 μg/ml insulin in 10% FBS/DMEM.
AcE was partially dissolved in dimethyl sulfoxide (DMSO) and added to the culture medium to achieve a concentration of 50 μg/ml at Day 0 of differentiation and throughout the maturation phase (Days 6 or 7 (D6/7)). Whenever fresh media were added, fresh test material was also added. DMSO was chosen for its polarity and the fact that it is miscible with the aqueous cell culture media.
Oil Red O Staining—Triglyceride content of D6/D7-differentiated 3T3-L1 cells was estimated with Oil Red O according to the method of Kasturi and Joshi [Kasturi, R. and Joshi, V. C. […] Monolayer cells were washed with PBS (phosphate buffered saline, Mediatech) and fixed with 10% formaldehyde for ten minutes. Fixed cells were stained with an Oil Red O working solution of three parts 0.6% Oil Red O/isopropanol stock solution and two parts water for one hour and the excess stain was washed once with water. The resulting stained oil droplets were extracted from the cells with isopropanol and quantified by spectrophotometric analysis at 540 nm (MEL312e BIO-KINETICS READER, Bio-Tek Instruments, Winooski, Vt.).
Briefly, media were removed and cells were washed once with non-sterile PBS. A stock 1000× BODIPY/DMSO solution was made by dissolving 1 mg BODIPY in 1 ml DMSO (1,000 μg BODIPY/ml). […] After 15 min on an orbital shaker (DS-500, VWR Scientific Products, South Plainfield, N.J.) at ambient temperature, the cells were washed with 100 μl PBS followed by the addition of 100 μl PBS for reading for spectrofluorometric determination of BODIPY incorporation into the cells. […]

[7] = Non-fasting serum glucose and insulin in db/db diabetic mice; format: in vivo, mouse; conditions: three consecutive days, gavage
Protocol: The Model—Male, C57BLKS/J m^+/m^+Lepr^db (db/db) mice were used to assess the potential of the test materials to reduce fasting serum glucose or insulin concentrations. This strain of mice is resistant to leptin by virtue of the absence of a functioning leptin receptor.
Testing Procedure—Test substances were administered daily by gavage in 0.2% Tween-80. Serum was collected from the retroorbital sinus before the initial dose and ninety minutes after the third and final dose. Non-fasting serum glucose was determined enzymatically by the mutarotase/glucose oxidase method and serum insulin was determined by a mouse specific ELISA.
The Model—Male, C57BLKS/J m+/m+ Leprdb (db/db) mice were used to assess the potential of the test materials to reduce fasting serum glucose or insulin concentrations. This strain of mice is resistant to leptin by virtue of the absence of a functioning leptin receptor.
Testing Procedure—Test substances were administered daily by gavage in 0.2% Tween-80. Serum was collected from the retroorbital sinus before the initial dose and ninety minutes after the fifth and final dose. Non-fasting serum glucose was determined enzymatically by the mutarotase/glucose oxidase method and serum insulin was determined by a mouse specific ELISA.

PI3K gamma = PI3K gamma (Homo sapiens, UniProt P48736); test: KinaseProfiler Assay; format: biochemical; conditions: 50 μg/ml
Sequence of PI3K gamma (P48736 whole entry): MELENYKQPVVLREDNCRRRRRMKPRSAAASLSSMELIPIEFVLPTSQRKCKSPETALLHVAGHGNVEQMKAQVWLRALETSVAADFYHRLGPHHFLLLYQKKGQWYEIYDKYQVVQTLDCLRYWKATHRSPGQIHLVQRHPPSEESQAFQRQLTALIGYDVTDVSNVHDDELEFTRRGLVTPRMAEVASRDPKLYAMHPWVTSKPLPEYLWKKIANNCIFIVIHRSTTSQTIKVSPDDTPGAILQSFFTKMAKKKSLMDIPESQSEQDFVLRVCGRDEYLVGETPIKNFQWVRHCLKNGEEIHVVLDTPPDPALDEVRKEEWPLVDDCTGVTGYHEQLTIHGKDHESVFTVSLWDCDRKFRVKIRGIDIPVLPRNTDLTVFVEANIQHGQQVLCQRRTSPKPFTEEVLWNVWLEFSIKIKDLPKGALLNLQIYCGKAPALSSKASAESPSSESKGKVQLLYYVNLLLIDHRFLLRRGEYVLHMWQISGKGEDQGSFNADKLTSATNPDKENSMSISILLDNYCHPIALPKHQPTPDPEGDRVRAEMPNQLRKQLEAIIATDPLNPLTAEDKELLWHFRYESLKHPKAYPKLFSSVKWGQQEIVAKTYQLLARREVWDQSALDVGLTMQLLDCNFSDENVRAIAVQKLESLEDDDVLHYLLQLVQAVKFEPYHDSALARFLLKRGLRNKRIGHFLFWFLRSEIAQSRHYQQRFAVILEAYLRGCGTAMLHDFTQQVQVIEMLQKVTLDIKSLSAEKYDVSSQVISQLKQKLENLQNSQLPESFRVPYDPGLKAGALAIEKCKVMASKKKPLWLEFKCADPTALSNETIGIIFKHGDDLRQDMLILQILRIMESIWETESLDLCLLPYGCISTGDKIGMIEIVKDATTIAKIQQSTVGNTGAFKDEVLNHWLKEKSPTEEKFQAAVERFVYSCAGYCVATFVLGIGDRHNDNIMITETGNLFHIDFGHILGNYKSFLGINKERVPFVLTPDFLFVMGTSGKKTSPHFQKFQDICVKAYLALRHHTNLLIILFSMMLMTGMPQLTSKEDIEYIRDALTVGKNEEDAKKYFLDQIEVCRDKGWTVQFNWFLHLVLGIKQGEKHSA

[8] = system: A549 pulmonary epithelial cells; test: PGE2 biosynthesis in A549 cells stimulated by mite dust allergen; format: cell-based, human; conditions: 10 μg/ml, mite allergen 1000 ng/ml, 18 h
Protocol: The filtrate was termed mite dust allergen and used to test for induction of PGE2 biosynthesis in A549 pulmonary epithelial cells.
Mite allergen was added to the culture medium to achieve a final concentration of 1000 ng/ml. Eighteen hours later, the media were sampled for PGE2 determination.

[9] = 10 ng TNFα/ml, listed as indomethacin

CC(=O)Oc1ccccc1C(=O)O [Aspirin]
adiponectin secretion (3T3-L1 adipocytes [1]): failed to induce adiponectin secretion

CC(C)CCC1=C(O)C(C(=O)C(C)C)=C(O)C(CCC(C)C)(CCC(C)C)C1=O [Hexahydrocolupulone (HHCL)]
Adiponectin/IL-6 (3T3-L1 adipocytes [2]; 50.0 μg/ml, ratio of indices): 0.60#

COc1ccc2c(c1)c(CC(=O)O)c(C)n2C(=O)c1ccc(Cl)cc1 [Indomethacin, indomethacin]
adiponectin secretion (3T3-L1 adipocytes [3]; 0.5 ng TNFα/ml, 50 μg/ml): dose-dependant decrease in adiponectin secretion | Concentration of maximum adiponectin secretion (3T3-L1 adipocytes [3]; 10 ng TNFα/ml): 5.0 µg/mL | Concentration of maximum adiponectin secretion (3T3-L1 adipocytes [3]; [9]): 2.5 µg/mL | maximum increase of adiponectin secretion from TNFα solvent control (3T3-L1 adipocytes [3]; [9]): 94% | Adiponectin/IL-6 (3T3-L1 adipocytes [3]; […], 10 ng TNFα/ml): 2.00* | IL-6 secretion in the presence of TNFα (3T3-L1 adipocytes [4]): no anti-inflammatory effect | % Inhibition (maximum) of IL-6 secretion (3T3-L1 adipocytes [5]; 5.00 μg/ml): 53* %

CCc1ccc(CCOc2ccc(CC3SC(=O)NC3=O)cc2)nc1 (stereo not shown) [Pioglitazone]
maximum increase of adiponectin secretion from TNFα solvent control (3T3-L1 adipocytes [3]; 10 ng TNFα/ml): 80% | Adiponectin Index (maximum over four doses) (3T3-L1 adipocytes [3]; 10 ng TNFα/ml, Example 17): 1.47 | Adiponectin Index Observed (3T3-L1 adipocytes [3]; 1.0 μg/ml, indexed to TNFα control): 1.80 | IL-6 Index (3T3-L1 adipocytes [5]; 5.00 μg/ml (dose providing maximum inhibition)): 0.37* | inhibition at 5 µg/mL (3T3-L1 adipocytes [5]; Mus musculus, 3T3-L1, 5.00 μg/ml, read-out: % Inhibition (maximum) of IL-6 secretion): 63% | nuclear NF-kBp65 (NF-kBp65): did not inhibit

Cc1c(C)c2c(c(C)c1O)CCC(C)(COc1ccc(CC3SC(=O)NC3=O)cc1)O2 (stereo not shown) [Troglitazone]
maximum increase of adiponectin secretion from TNFα solvent control (3T3-L1 adipocytes [3]; 10 ng TNFα/ml): 51% | inhibition at 10 µg/mL (3T3-L1 adipocytes [5]; Mus musculus, 3T3-L1, 10.0 μg/ml, read-out: % Inhibition (maximum) of IL-6 secretion): 69% | % Stimulation (maximum) of adiponectin secretion (3T3-L1 adipocytes [1]): 15%

CC(C)CCC1=C(O)C(C(=O)C(C)C)=C(O)C(CCC(C)C)(CCC(C)C)C1=O [hexahydrocolupulone]
concentration for half maximal adiponectin secretion (3T3-L1 adipocytes [2]; Hofstee plot): 3.2 µg/mL | adipogenic response of hops compounds (3T3-L1 adipocytes [6]): failed to elicit a lipogenic response greater than the solvent controls

CC(C)Cc1ccc(C(C)C(=O)O)cc1 (stereo not shown) [ibuprofen]
inhibition at 0.625 µg/mL (3T3-L1 adipocytes [5]; Mus musculus, 3T3-L1, 0.625 μg/ml, read-out: % Inhibition (maximum) of IL-6 secretion): 54% | % Stimulation (maximum) of adiponectin secretion (3T3-L1 adipocytes [1]): 22%

CN(C)C(=N)N=C(N)N [metformin, Metformin]
serum glucose relative to controls [7]: decreased both serum glucose and insulin concentrations | lipogenic index (3T3-L1 adipocytes [6]; 50 μg test material/ml, observed): 0.79

O=C(O)c1ccccc1O [salicylic acid]
IL-6 Index (3T3-L1 adipocytes [5]; 50.0 μg/ml (dose providing maximum inhibition)): 0.52* | inhibition at 50 µg/mL (3T3-L1 adipocytes [5]; Mus musculus, 3T3-L1, 50.0 μg/ml, read-out: % Inhibition (maximum) of IL-6 secretion): 48% | adiponectin secretion (3T3-L1 adipocytes [1]): failed to induce adiponectin secretion

COc1cc(O)c(CC=C(C)C)c(O)c1C(=O)/C=C/c1ccc(O)cc1 [xanthohumol]
PI3K isoform preference (PI3K gamma): more inhibitory to PI3K-γ than to PI3K-β or PI3K-δ | adipogenic response of hops compounds (3T3-L1 adipocytes [6]): comparable to indomethacin and troglitazone

Beta acids
Percent PGE2 Inhibition [8]: 83% | adipogenic response of hops compounds (3T3-L1 adipocytes [6]): comparable to indomethacin and troglitazone
